PMC12120773, “SIRT4 Promotes Pancreatic Cancer Stemness by Enhancing Histone Lactylation and Epigenetic Reprogramming Stimulated by Calcium Signaling” (Advanced Science, 2025)

How the values were obtained:
[1] = molecular target: T1, ENO1 (Enolase 1, α isoform of enolase) (Homo sapiens, UniProt P06733, K358Q); experiment: SPR steady-state affinity (Biacore T200, CM5 chip); format: binding
T1 construct: recombinant protein expressed in E. coli (printed for the mutants), amine-coupled to CM5 chip
T1 sequence (P06733 2-434 K358Q): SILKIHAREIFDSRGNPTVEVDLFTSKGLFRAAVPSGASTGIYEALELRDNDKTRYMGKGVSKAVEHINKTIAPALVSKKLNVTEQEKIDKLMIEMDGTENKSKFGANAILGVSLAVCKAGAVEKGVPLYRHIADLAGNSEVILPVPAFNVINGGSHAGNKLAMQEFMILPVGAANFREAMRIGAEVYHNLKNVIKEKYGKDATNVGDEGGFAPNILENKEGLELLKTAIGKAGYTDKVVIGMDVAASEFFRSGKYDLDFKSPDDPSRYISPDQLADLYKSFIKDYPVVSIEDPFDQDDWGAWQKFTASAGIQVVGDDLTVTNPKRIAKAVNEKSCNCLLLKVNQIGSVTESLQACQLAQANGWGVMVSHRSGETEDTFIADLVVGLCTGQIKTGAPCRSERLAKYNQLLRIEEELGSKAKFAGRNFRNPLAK

[2] = molecular target: T2, ENO1 (Enolase 1, α isoform of enolase) (Homo sapiens, UniProt P06733, K358R); experiment: SPR steady-state affinity (Biacore T200, CM5 chip); format: binding
T2 construct: recombinant protein expressed in E. coli (printed for the mutants), amine-coupled to CM5 chip
T2 sequence (P06733 2-434 K358R): as the sequence (P06733 2-434 K358Q) above, with Q357R counted along it

O=C(O)[C@@H](CO)OP(=O)(O)O [2‐PG]
Kd [1]: 17.7 µM | Kd [2]: 2.61 µM
